Source: patent US12365667B2, “Sulfone pyridine alkyl amide-substituted heteroaryl compounds” (BRISTOL-MYERS SQUIBB COMPANY, priority 2017, dated 2025)

Each compound was assayed on IFNα-induced STAT phosphorylation (pSTAT5) in human whole blood (assay: IFNα-Induced STAT Phosphorylation in Human Whole Blood). Conditions: 1 h incubation with compound, 1000 U/mL recombinant human IFNα A/D for 15 min, pSTAT5 in CD3 positive population, read-out: IFNα-Induced Stat Phosph. (IC50).
Assay type: cell-based

Compound	IC50 [nM]
CNC(=O)c1cnc(Nc2ccccn2)cc1Nc1ncccc1S(C)(=O)=O [Example 216]	28
CNC(=O)c1cnc(Nc2ccc(Cl)cn2)cc1Nc1ncccc1S(C)(=O)=O [Example 217]	52
CNC(=O)c1cnc(Nc2cc(C)c(F)cn2)cc1Nc1ncccc1S(C)(=O)=O [Example 218]	34
CNC(=O)c1cnc(Nc2ccc(C(F)(F)F)cn2)cc1Nc1ncccc1S(C)(=O)=O [Example 219]	24
CNC(=O)c1cnc(Nc2ccc(C#N)cn2)cc1Nc1ncccc1S(C)(=O)=O [Example 220]	15
CNC(=O)c1cnc(Nc2cc(C#N)ccn2)cc1Nc1ncccc1S(C)(=O)=O [Example 221]	13
CNC(=O)c1cnc(Nc2cnc(C3CC3)cn2)cc1Nc1ncccc1S(C)(=O)=O [Example 222]	59
CNC(=O)c1cnc(Nc2ccc(C(F)(F)F)nn2)cc1Nc1ncccc1S(C)(=O)=O [Example 223]	94
CNC(=O)c1cnc(Nc2cccnn2)cc1Nc1ncccc1S(C)(=O)=O [Example 224]	44
CNC(=O)c1cnc(Nc2cc(C(F)(F)F)ncn2)cc1Nc1ncccc1S(C)(=O)=O [Example 225]	164
CNC(=O)c1cnc(Nc2cc(C3CC3)nc(C3CC3)n2)cc1Nc1ncccc1S(C)(=O)=O [Example 228]	181
CNC(=O)c1cnc(Nc2cc(C3CC3)nc(C)n2)cc1Nc1ncccc1S(C)(=O)=O [Example 229]	47
CNC(=O)c1cnc(Nc2cc(C#N)c(C)cn2)cc1Nc1ncccc1S(C)(=O)=O [Example 230]	22
CNC(=O)c1cnc(Nc2cc(C(F)(F)F)c(C#N)cn2)cc1Nc1ncccc1S(C)(=O)=O [Example 231]	360
CNC(=O)c1cnc(Nc2cc(C#N)c(C(F)(F)F)cn2)cc1Nc1ncccc1S(C)(=O)=O [Example 232]	131
CNC(=O)c1cnc(Nc2cc(C)c(C#N)cn2)cc1Nc1ncccc1S(C)(=O)=O [Example 233]	61

Compound	IC50 [nM]
CCC(=O)Nc1cc(Nc2ncccc2S(C)(=O)=O)c(C(=O)NC)cn1 [Example 235]	144
CNC(=O)c1cnc(NC(=O)C2CC2)cc1Nc1ncccc1S(C)(=O)=O [Example 236]	13
CNC(=O)c1cnc(NC(=O)OC)cc1Nc1ncccc1S(C)(=O)=O [Example 237]	1080
CNC(=O)c1cnc(Nc2cccc(-c3ccccc3)n2)cc1Nc1ncccc1S(C)(=O)=O [Example 238]	2450
CNC(=O)c1cnc(NC(=O)C2CCC2)cc1Nc1ncccc1S(C)(=O)=O [Example 239]	288
CNC(=O)c1cnc(Nc2ccc(OC(F)(F)F)cn2)cc1Nc1ncccc1S(C)(=O)=O [Example 240]	115
CCC(=O)Nc1cc(Nc2nc(C)ccc2S(C)(=O)=O)c(C(=O)NC)cn1 [Example 241]	203
CNC(=O)c1cnc(NC(=O)C2CC2)cc1Nc1nc(C)ccc1S(C)(=O)=O [Example 242]	50
CNC(=O)c1nnc(Nc2ccc(C(C)(C)C)nn2)cc1Nc1ncccc1S(C)(=O)=O [Example 245, 6-((6-(tert-butyl)pyridazinyl-3-yl)amino)-N-(methyl-d3)-4-((3-(methylsulfonyl)pyridin-2-yl)amino)pyridazine-3-carboxamide]	10
[2H]C([2H])([2H])NC(=O)c1nnc(NC(=O)[C@H]2CC23CC3)cc1Nc1ncccc1S(C)(=O)=O [Example 253, (S)—N-(methyl-d3)-4-((3-(methylsulfonyl)pyridin-2-yl)amino)-6-(spiro[2.2]pentane-1-carboxamido)pyridazine-3-carboxamide]	47
CNC(=O)c1nnc(Nc2cc(C)nc(C)n2)cc1Nc1ncccc1[S+](C)[O-] (stereo not drawn) [Example 254]	186
CNC(=O)c1nnc(Nc2ccc(OC)nn2)cc1Nc1ncccc1[S+](C)[O-] (stereo not drawn) [Example 255]	466
CNC(=O)c1nnc(Nc2ccn(C)n2)cc1Nc1ncccc1[S+](C)[O-] (stereo not drawn) [Example 256]	744
CNC(=O)c1nnc(Nc2ccc(C(C)(C)NC3COC3)cn2)cc1Nc1ncccc1S(C)(=O)=O [compound 170]	11
CCNC(=O)c1nnc(Nc2cc(C3CC3)nc(C)n2)cc1Nc1ncccc1S(C)(=O)=O [compound 212]	1080
Cn1ccc(Nc2cc(Nc3ncccc3S(C)(=O)=O)c(C(N)=O)nn2)n1 [compound 214]	46

Same assay, conditions: Homo sapiens, 1 h incubation with compound, 1000 U/mL recombinant human IFNα A/D for 15 min, pSTAT5 in CD3 positive population, read-out: IFNα-Induced Stat Phosph. (IC50)

Compound	IC50 [nM]
COc1ccc(Nc2cc(Nc3ncccc3S(C)(=O)=O)c(C(N)=O)nn2)nn1 [Example 213, 6-((6-methoxypyridazin-3-yl)amino)-4-((3-(methylsulfonyl)pyridin-2-yl)amino)pyridazine-3-carboxamide]	114
[2H]C([2H])([2H])NC(=O)c1cnc(Nc2ccc(F)cn2)cc1Nc1ncccc1S(C)(=O)=O [Example 215, 6-((5-fluoropyridin-2-yl)amino)-N-(methyl-d3)-4-((3-(methylsulfonyl)pyridin-2-yl)amino)nicotinamide]	21
[2H]C([2H])([2H])NC(=O)c1cnc(Nc2ccc(-c3ccccc3)cn2)cc1Nc1ncccc1S(C)(=O)=O [Example 234, N-(methyl-d3)-4-((3-(methylsulfonyl)pyridin-2-yl)amino)-6-((5-phenylpyridin-2-yl)amino)nicotinamide]	636
[2H]C([2H])([2H])NC(=O)c1nnc(Nc2ccc(OC(F)F)nn2)cc1Nc1ncccc1S(C)(=O)=O [Example 246, 6-((6-(difluoromethoxy)pyridazin-3-yl)amino)-N-(methyl-d3)-4-((3-(methylsulfonyl)pyridin-2-yl)amino)pyridazine-3-carboxamide]	34
[2H]C([2H])([2H])NC(=O)c1nnc(Nc2ccc(C(C)C)nn2)cc1Nc1ncccc1S(C)(=O)=O [Example 247, 6-((6-isopropylpyridazin-3-yl)amino)-N-(methyl-d3)-4-((3-(methylsulfonyl)pyridin-2-yl)amino)pyridazine-3-carboxamide]	6
[2H]C([2H])([2H])NC(=O)c1nnc(Nc2cccnn2)cc1Nc1ncccc1S(C)(=O)=O [Example 251, N-(methyl-d3)-4-((3-(methylsulfonyl)pyridin-2-yl)amino)-6-(pyridazin-3-ylamino)pyridazine-3-carboxamide]	7
[2H]C([2H])([2H])NC(=O)c1nnc(NC(=O)[C@@H]2CC23CC3)cc1Nc1ncccc1S(C)(=O)=O [Example 252, (R)—N-(methyl-d3)-4-((3-(methylsulfonyl)pyridin-2-yl)amino)-6-(spiro[2.2]pentane-1-carboxamido)pyridazine-3-carboxamide]	53
